This note sets out measurements from patent US8742098B2, “Inhibitors of Bruton's tyrosine kinase” (Hoffmann-La Roche Inc., priority 2011, dated 2014).

The experiment concerns B cell receptor-mediated activation of B cells in human blood. The experiment in a line: Inhibition of B cell activation in whole blood measured by CD69 expression. Conditions: anti-IgM stimulation, 20 hours, CD69-positive cells that are also CD20-positive, read-out: HWB IC50. In kind it is cell-based. On the procedure:
A procedure to test the ability of Btk inhibitors to suppress B cell receptor-mediated activation of B cells in human blood is as follows:
Human whole blood (HWB) is obtained from healthy volunteers, with the following restrictions: 24 hr drug-free, non-smokers. Blood is collected by venipuncture into Vacutainer tubes anticoagulated with sodium heparin. Test compounds are diluted to ten times the desired starting drug concentration in PBS (20×), followed by three-fold serial dilutions in 10% DMSO in PBS to produce a nine point dose-response curve. 5.5 μl of each compound dilution is added in duplicate to a 2 ml 96-well V bottom plate (Analytical Sales and Services, #59623-23); 5.5 μl of 10% DMSO in PBS is added to control and no-stimulus wells. HWB (100 μl) is added to each well, and after mixing the plates are incubated at 37 C, 5% CO2, 100% humidity for 30 minutes. Goat F(ab′)2 anti-human IgM (Southern Biotech, #2022-14) (10 μl of a 500 μg/ml solution, 50 μg/ml final concentration) is added to each well (except the no-stimulus wells) with mixing and the plates are incubated for an additional 20 hours.
At the end of the 20 hour incubation, samples are incubated with florescent-probe-labeled anti-bodies (15 μl PE Mouse anti-Human CD20, BD Pharmingen, #555623, and/or 20 ul APC Mouse anti-Human CD69, BD Pharmingen #555533) for 30 minutes, at 37 C, 5% CO2, 100% humidity. Included are induced control, unstained and single stains for compensation adjustments and initial voltage settings. Samples are then lysed with 1 ml of 1× Pharmingen Lyse Buffer (BD Pharmingen #555899), and plates are centrifuged at 1800 rpm for 5 minutes. Supernatants are removed via suction and the remaining pellets are lysed again with another 1 ml of 1× Pharmingen Lyse Buffer, and plates are spun down as before. Supernatants are aspirated and remaining pellets are washed in FACs buffer (PBS+1% FBS). After a final spin, the supernantants are removed and pellets are resuspended in 180 μl of FACs buffer. Samples are transferred to a 96 well plate suitable to be run on the HTS 96 well system on the BD LSR II flow cytometer.
Using appropriate excitation and emission wavelengths for the fluorophores used, data are acquired and percent positive cell values are obtained using Cell Quest Software. Results are initially analyzed by FACS analysis software (Flow Jo). […] The IC50 values are calculated using XLfit software version 3, equation 201.
By IC50 is commonly meant the midpoint of a concentration-inhibition curve. Turning to `CC(C)(C)c1cc(F)c2c(=O)n(-c3cccc(-c4cc(Nc5ccc(C(=O)N6CCOCC6)cn5)c5ncnn5c4)c3CO)ncc2c1` [Compound I-1, 6-tert-Butyl-8-fluoro-2-(2-hydroxymethyl-3-{8-[5-(morpholine-4-carbonyl)-pyridin-2-ylamino]-[1,2,4]triazolo[1,5-a]pyridin-6-yl}-phenyl)-2H-phthalazin-1-one], the IC50 amounted to 350 nM.

Take `CC(C)(C)c1cc(F)c2c(=O)n(-c3cccc(-c4cc(Nc5ccc(C(=O)N6CCOCC6)cn5)c5nccn5n4)c3CO)ncc2c1` [Compound I-2, 6-tert-Butyl-8-fluoro-2-(2-hydroxymethyl-3-{8-[5-(morpholine-4-carbonyl)-pyridin-2-ylamino]-imidazo[1,2-b]pyridazin-6-yl}-phenyl)-2H-phthalazin-1-one]: the IC50 came to 77 nM. Turning to `CC(C)N1CCN(c2ccc(Nc3cc(-c4cccc(-n5ncc6cc(C(C)(C)C)cc(F)c6c5=O)c4CO)nn4ccnc34)nc2)CC1` [Compound I-3, 6-tert-Butyl-8-fluoro-2-(2-hydroxymethyl-3-{8-[5-(4-isopropyl-piperazin-1-yl)-pyridin-2-ylamino]-imidazo[1,2-b]pyridazin-6-yl}-phenyl)-2H-phthalazin-1-one], the IC50 stood at 40 nM. In the case of `CN1CCN(Cc2ccc(Nc3cc(-c4cccc(-n5ncc6cc(C(C)(C)C)cc(F)c6c5=O)c4CO)nn4ccnc34)nc2)CC1` [Compound I-4, 6-tert-Butyl-8-fluoro-2-(2-hydroxymethyl-3-{8-[5-(4-methyl-piperazin-1-ylmethyl)-pyridin-2-ylamino]-imidazo[1,2-b]pyridazin-6-yl}-phenyl)-2H-phthalazin-1-one], the IC50 amounted to 13 nM. With `CC(C)(C)c1cc(F)c2c(=O)n(-c3cccc(-c4cnnc(Nc5ccc(C(=O)N6CCOCC6)cn5)c4)c3CO)ncc2c1` [Compound I-5, 6-tert-Butyl-8-fluoro-2-(2-hydroxymethyl-3-{6-[5-(morpholine-4-carbonyl)-pyridin-2-ylamino]-pyridazin-4-yl}-phenyl)-2H-phthalazin-1-one], the IC50 turned out to be 890 nM.

As for `CC(C)(C)c1cc(F)c2c(=O)n(-c3cccc(-c4ccnc(Nc5ccc(C(=O)N6CCOCC6)cn5)c4)c3CO)ncc2c1` [Compound I-6, 6-tert-Butyl-8-fluoro-2-(2-hydroxymethyl-3-{2-[5-(morpholine-4-carbonyl)-pyridin-2-ylamino]-pyridin-4-yl}-phenyl)-2H-phthalazin-1-one], the IC50 came to 480 nM. Regarding `CC(C)(C)c1cc(F)c2c(=O)n(-c3cccc(-c4cn5ccnc5c(Nc5ccc(C(=O)N6CCOCC6)cc5)n4)c3CO)ncc2c1` [Compound I-7, 6-tert-Butyl-8-fluoro-2-(2-hydroxymethyl-3-{8-[4-(morpholine-4-carbonyl)-phenylamino]-imidazo[1,2-a]pyrazin-6-yl}-phenyl)-2H-phthalazin-1-one], the IC50 turned out to be 112 nM. Take `CN1CCC(c2ccc(Nc3nc(-c4cccc(-n5ncc6cc(C(C)(C)C)cc(F)c6c5=O)c4CO)cn4ccnc34)cc2)CC1` [Compound I-8, 6-tert-Butyl-8-fluoro-2-(2-hydroxymethyl-3-{8-[4-(1-methyl-piperidin-4-yl)-phenylamino]-imidazo[1,2-a]pyrazin-6-yl}-phenyl)-2H-phthalazin-1-one]: the IC50 amounted to 2270 nM.

`CC(C)(C)c1cc(F)c2c(=O)n(-c3cccc(-c4cc(Nc5ccc(C(=O)N6CCOCC6)cc5)c5nccn5c4)c3CO)ncc2c1` [Compound I-9, 6-tert-Butyl-8-fluoro-2-(2-hydroxymethyl-3-{8-[4-(morpholine-4-carbonyl)-phenylamino]-imidazo[1,2-a]pyridin-6-yl}-phenyl)-2H-phthalazin-1-one]: the IC50 amounted to 1040 nM. Consider `CC(C)(C)c1cc(F)c2c(=O)n(-c3cccc(-c4cc(Nc5ccc(C(=O)N6CCOCC6)cn5)c5nccn5c4)c3CO)ncc2c1` [Compound I-10, 6-tert-Butyl-8-fluoro-2-(2-hydroxymethyl-3-{8-[5-(morpholine-4-carbonyl)-pyridin-2-ylamino]-imidazo[1,2-a]pyridin-6-yl}-phenyl)-2H-phthalazin-1-one], for which the half-inhibitory concentration (IC50) was determined as 142 nM. Under `CN1CCC(c2ccc(Nc3cc(-c4cccc(-n5ncc6cc(C(C)(C)C)cc(F)c6c5=O)c4CO)cn4ccnc34)nc2)CC1` [Compound I-11, 6-tert-Butyl-8-fluoro-2-{2-hydroxymethyl-3-[8-(1′-methyl-1′,2′,3′,4′,5′,6′-hexahydro-[3,4′]bipyridinyl-6-ylamino)-imidazo[1,2-a]pyridin-6-yl]-phenyl}-2H-phthalazin-1-one] stands 72 nM; under `CC(C)(C)c1cc(F)c2c(=O)n(-c3cccc(-c4cc(Nc5ccc(C(=O)N6CCOCC6)cn5)ncn4)c3CO)ncc2c1` [Compound I-12, 6-tert-Butyl-8-fluoro-2-(2-hydroxymethyl-3-{6-[5-(morpholine-4-carbonyl)-pyridin-2-ylamino]-pyrimidin-4-yl}-phenyl)-2H-phthalazin-1-one], 2500 nM; under `CC(C)(C)c1cc(F)c2c(=O)n(-c3cccc(-c4cc(Nc5ccc(C(=O)N6CCOCC6)cn5)c5ncccc5c4)c3CO)ncc2c1` [Compound I-13, 6-tert-Butyl-8-fluoro-2-(2-hydroxymethyl-3-{8-[5-(morpholine-4-carbonyl)-pyridin-2-ylamino]-quinolin-6-yl}-phenyl)-2H-phthalazin-1-one], above 5000 nM.
